Target: T1, human GPR40 (Homo sapiens, UniProt O14842)
T1 construct: expressed in transfected cells
Test: Evaluation of human GPR40 agonist activity with increase in intracellular Ca2+ concentration as an index (FLIPR Tetra)
Type: cell-based
Conditions: test compound 1 μM; CHO(dhfr−) cells stably expressing human GPR40; 100% = 1 μM WO2009/048527 Example 99.2, 0% = DMSO
Experimental: Evaluation of Human GPR40 Agonist Activity with Increase in Intracellular Ca^2+ Concentration as an Index
CHO(dhfr−) cells that stably expressed human GPR40 were suspended in MEMα (Nikken Bio Medical Laboratory) containing 10% dialysis serum (GEMINI BIO-PRODUCTS), 10 mM HEPES (Invitrogen), 100 U/mL penicillin, 100 μg/mL streptomycin (Invitrogen), and plated on a 384 well black/clear cell culture plate at 10,000 cells/well. After culture overnight in a CO2 incubator at 37° C., the culture supernatant was removed, and a loading buffer [dye attached to Calcium 5 Assay Kit (Molecular Devices) was dissolved in an assay buffer (20 mM HEPES, 0.2% fatty acid-free BSA (Sigma-Aldrich), 2.5 mM probenecid (DOJINDO)-containing HBSS (Invitrogen)) added with 0.025% Cremophor EL (DOJINDO)] was added at 37.5 μL/well. After incubation in a CO2 incubator at 37° C. for 1 hr, the cells were stood at room temperature for 15 min, an assay buffer containing the test compound at a final concentration of 1 μM was added at 12.5 μL/well in FLIPR Tetra (Molecular Devices), and the fluorescence amount was successively measured. Human GPR40 agonist activity calculated using an increase in the intracellular Ca^2+ concentration as an index, wherein the activity of 1 μM of the compound described in WO 2009/048527 (WO2009/048527 Example 99.2) was 100%, and the activity when DMSO was added instead of the test compound was 0%.

T1 sequence (O14842 whole entry): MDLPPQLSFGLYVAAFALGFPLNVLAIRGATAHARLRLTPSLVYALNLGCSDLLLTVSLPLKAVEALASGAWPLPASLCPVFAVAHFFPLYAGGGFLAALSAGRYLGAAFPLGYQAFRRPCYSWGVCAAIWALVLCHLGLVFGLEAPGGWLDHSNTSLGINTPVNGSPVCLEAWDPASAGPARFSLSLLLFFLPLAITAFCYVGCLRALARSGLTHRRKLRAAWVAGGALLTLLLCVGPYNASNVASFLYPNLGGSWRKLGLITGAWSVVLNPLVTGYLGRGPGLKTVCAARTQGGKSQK

SMILES	activation at 1 µM [%]	Human GPR40 agonist activity (increase in intracellular Ca2+ concentration) [%]
COc1ccc(F)c(-c2ncc(COc3cccc(C(CC(=O)O)C4CC4)c3)cc2OCC(C)C)c1 (stereo not shown) [Example 31, 3-cyclopropyl-3-(3-((6-(2-fluoro-5-methoxyphenyl)-5-isobutoxypyridin-3-yl)methoxy)phenyl)propanoic acid]	104	–
COc1ccc(F)c(-c2ccc(COc3cc(C(CC(=O)O)C4CC4)ncn3)nc2OCC(C)C)c1 (stereo not shown) [Example 2, 3-cyclopropyl-3-(6-((5-(2-fluoro-5-methoxyphenyl)-6-isobutoxypyridin-2-yl)methoxy)pyrimidin-4-yl)propanoic acid]	107	–
COc1ccc(F)c(-c2ncc(COc3cc(C(CC(=O)O)C4CC4)ncn3)cc2OCC(C)C)c1 (stereo not shown) [Example 32, 3-cyclopropyl-3-(6-((6-(2-fluoro-5-methoxyphenyl)-5-isobutoxypyridin-3-yl)methoxy)pyrimidin-4-yl)propanoic acid]	104	–
COc1ccc(F)c(-c2ncc(COc3cc(C(CC(=O)O)C4CC4)c(F)cn3)cc2CC2(C#N)CCCC2)c1 (stereo not shown) [Example 43, 3-(2-((5-((1-cyanocyclopentyl)methyl)-6-(2-fluoro-5-methoxyphenyl)pyridin-3-yl)methoxy)-5-fluoropyridin-4-yl)-3-cyclopropylpropanoic acid]	115	–
COc1ccc(F)c(-c2ncc(COc3cccc(C(CC(=O)O)C4CC4)c3)cc2CC(C)(C)C)c1 (stereo not shown) [Example 34, 3-cyclopropyl-3-(3-((5-(2,2-dimethylpropyl)-6-(2-fluoro-5-methoxyphenyl)pyridin-3-yl)methoxy)phenyl)propanoic acid]	118	–
COc1ccc(F)c(-c2ccc(COc3cc(C(CC(=O)O)C4CC4)ccn3)nc2CC(C)(C)C)c1 (stereo not shown) [Example 30, 3-cyclopropyl-3-(2-((6-(2,2-dimethylpropyl)-5-(2-fluoro-5-methoxyphenyl)pyridin-2-yl)methoxy)pyridin-4-yl)propanoic acid]	112	–
COc1ccc(F)c(-c2cnc(COc3cc(C(CC(=O)O)C4CC4)ncn3)cc2OCC(C)C)c1 (stereo not shown) [Example 6, 3-cyclopropyl-3-(6-((5-(2-fluoro-5-methoxyphenyl)-4-isobutoxypyridin-2-yl)methoxy)pyrimidin-4-yl)propanoic acid]	98	–
COc1ccc(F)c(-c2ncc(COc3cc(C(CC(=O)O)C4CC4)ncn3)cc2OCC(C)(C)C)c1 (stereo not shown) [Example 36, 3-cyclopropyl-3-(6-((5-(2,2-dimethylpropoxy)-6-(2-fluoro-5-methoxyphenyl)pyridin-3-yl)methoxy)pyrimidin-4-yl)propanoic acid]	106	–
COc1ccc(F)c(-c2cnc(COc3cc(C(CC(=O)O)C4CC4)ncn3)nc2OCC(C)C)c1 (stereo not shown) [Example 41, 3-cyclopropyl-3-(6-((5-(2-fluoro-5-methoxyphenyl)-4-isobutoxypyrimidin-2-yl)methoxy)pyrimidin-4-yl)propanoic acid]	110	–
COc1ccc(F)c(-c2ccc(COc3cc(C)cc(CCC(=O)O)c3)nc2CC(C)(C)C)c1 [Example 23, Sodium 3-(3-((6-(2,2-dimethylpropyl)-5-(2-fluoro-5-methoxyphenyl)pyridin-2-yl)methoxy)-5-methylphenyl)propanoate]	99	–
COc1ccc(F)c(-c2ccc(COc3cccc(C(CC(=O)O)C4CC4)c3)nc2OCC(C)C)c1 (stereo not shown) [Example 1, 3-cyclopropyl-3-(3-((5-(2-fluoro-5-methoxyphenyl)-6-isobutoxypyridin-2-yl)methoxy)phenyl)propanoic acid]	100	–
COc1ccc(F)c(-c2ccc(COc3cc(C(CC(=O)O)C4CC4)ncn3)nc2CC(C)(C)C)c1 (stereo not shown) [Example 8, 3-cyclopropyl-3-(6-((6-(2,2-dimethylpropyl)-5-(2-fluoro-5-methoxyphenyl)pyridin-2-yl)methoxy)pyrimidin-4-yl)propanoic acid]	106	–
COc1ccc(F)c(-c2ccc(COc3cc(CCC(=O)O)ccc3C)nc2CC(C)(C)C)c1 [Example 13, 3-(3-((6-(2,2-dimethylpropyl)-5-(2-fluoro-5-methoxyphenyl)pyridin-2-yl)methoxy)-4-methylphenyl)propanoic acid]	110	–
COc1ccc(F)c(-c2ccc(COc3cc(C(CC(=O)O)C4CC4)c(F)cn3)nc2CC(C)(C)C)c1 (stereo not shown) [Example 42, 3-cyclopropyl-3-(5-fluoro-2-((5-(2-fluoro-5-methoxyphenyl)-6-neopentylpyridin-2-yl)methoxy)pyridin-4-yl)propanoic acid]	115	–

Results, then the compound that gave them:

activation at 1 µM [%]	Human GPR40 agonist activity (increase in intracellular Ca2+ concentration) [%]	SMILES
103	–	COc1cc(CCC(=O)O)cc(OCc2ccc(-c3cc(OC)ccc3F)c(CC(C)(C)C)n2)c1 [Example 15, 3-(3-((6-(2,2-dimethylpropyl)-5-(2-fluoro-5-methoxyphenyl)pyridin-2-yl)methoxy)-5-methoxyphenyl)propanoic acid]
109	–	COc1ccc(F)c(-c2ccc(COc3ccc(OC)c(CCC(=O)O)c3)nc2CC(C)(C)C)c1 [Example 18, 3-(5-((6-(2,2-dimethylpropyl)-5-(2-fluoro-5-methoxyphenyl)pyridin-2-yl)methoxy)-2-methoxyphenyl)propanoic acid]
109	–	COc1ccc(F)c(-c2ccc(COc3ccc(C)c(CCC(=O)O)c3)nc2CC(C)(C)C)c1 [Example 17, 3-(5-((6-(2,2-dimethylpropyl)-5-(2-fluoro-5-methoxyphenyl)pyridin-2-yl)methoxy)-2-methylphenyl)propanoic acid]
103	–	COc1ccc(F)c(-c2ccc(COc3cccc(CCC(=O)O)c3F)nc2CC(C)(C)C)c1 [Example 22, 3-(3-((6-(2,2-dimethylpropyl)-5-(2-fluoro-5-methoxyphenyl)pyridin-2-yl)methoxy)-2-fluorophenyl)propanoic acid]
–	107	COc1ccc(F)c(-c2ncc(COc3cc(C(CC(=O)O)C4CC4)c(F)cn3)cc2CC2(C#N)CCCC2)c1 (stereo not shown) [Example 44, 3-(2-((5-((1-cyanocyclopentyl)methyl)-6-(2-fluoro-5-methoxyphenyl)pyridin-3-yl)methoxy)-5-fluoropyridin-4-yl)-3-cyclopropylpropanoic acid]
112	–	COc1ccc(F)c(-c2ccc(COc3cc(C(CC(=O)O)C4CC4)ccc3OC)nc2CC(C)(C)C)c1 (stereo not shown) [Example 12, 3-cyclopropyl-3-(3-((6-(2,2-dimethylpropyl)-5-(2-fluoro-5-methoxyphenyl)pyridin-2-yl)methoxy)-4-methoxyphenyl)propanoic acid]
109	–	COc1ccc(F)c(-c2ccc(COc3cc(F)cc(CCC(=O)O)c3)nc2CC(C)(C)C)c1 [Example 16, 3-(3-((6-(2,2-dimethylpropyl)-5-(2-fluoro-5-methoxyphenyl)pyridin-2-yl)methoxy)-5-fluorophenyl)propanoic acid]
101	–	COc1ccc(F)c(-c2ncc(COc3cc(C(CC(=O)O)C4CC4)ncn3)cc2OCCC(F)(F)F)c1 (stereo not shown) [Example 37, 3-cyclopropyl-3-(6-((6-(2-fluoro-5-methoxyphenyl)-5-(3,3,3-trifluoropropoxy)pyridin-3-yl)methoxy)pyrimidin-4-yl)propanoic acid]
113	–	COc1ccc(F)c(-c2ncc(COc3cc(C(CC(=O)O)C4CC4)ccn3)cc2CC(C)(C)C)c1 (stereo not shown) [Example 40, 3-cyclopropyl-3-(2-((5-(2,2-dimethylpropyl)-6-(2-fluoro-5-methoxyphenyl)pyridin-3-yl)methoxy)pyridin-4-yl)propanoic acid]
–	106	COc1ccc(F)c(-c2ccc(COc3cccc(C(CC(=O)O)C4CC4)c3)nc2CC(C)(C)C)c1 (single isomer, unassigned) [Example 7, 3-cyclopropyl-3-(3-((6-(2,2-dimethylpropyl)-5-(2-fluoro-5-methoxyphenyl)pyridin-2-yl)methoxy)phenyl)propanoic acid]
100	–	COc1ccc(F)c(-c2ccc(COc3cccc(C(CC(=O)O)C4CC4)c3)nc2CC(C)(C)C)c1 (stereo not shown) [Example 11, 3-cyclopropyl-3-(3-((6-(2,2-dimethylpropyl)-5-(2-fluoro-5-methoxyphenyl)pyridin-2-yl)methoxy)phenyl)propanoic acid]
109	–	COc1ccc(F)c(-c2ccc(COc3ccc(F)c(CCC(=O)O)c3)nc2CC(C)(C)C)c1 [Example 19, 3-(5-((6-(2,2-dimethylpropyl)-5-(2-fluoro-5-methoxyphenyl)pyridin-2-yl)methoxy)-2-fluorophenyl)propanoic acid]
101	–	COc1ccc(F)c(-c2ncc(COc3cc(C(CC(=O)O)C4CC4)ncn3)cc2CC(C)(C)C)c1 (stereo not shown) [Example 35, 3-cyclopropyl-3-(6-((5-(2,2-dimethylpropyl)-6-(2-fluoro-5-methoxyphenyl)pyridin-3-yl)methoxy)pyrimidin-4-yl)propanoic acid]
103	–	COc1ccc(F)c(-c2ccc(COc3cccc(CCC(=O)O)c3)nc2CC(C)(C)C)c1 [Example 29, 3-(3-((6-(2,2-dimethylpropyl)-5-(2-fluoro-5-methoxyphenyl)pyridin-2-yl)methoxy)phenyl)propanoic acid]

— patent US9181186B2, “Aromatic ring compound” (TAKEDA PHARMACEUTICAL COMPANY LIMITED, priority 2012, dated 2015)
